Measurements as given in publication PMC7088350 (Chemistry of Heterocyclic Compounds, 2014).
Converted amounts (≈) assume the structure as drawn. “And” between values parts separate entries of the source, which are not always exact repeats. Identical values can stand only once. Like-named read-outs stand apart in the source and are kept apart here.

Legend:
[1] = system: Feline coronavirus; experiment: Antiviral activity; assay type: cell-based; conditions: for MIC50 Feline coronavirus: CRFK cells; for MIC50: Alphacoronavirus 1, read-out: MIC50 Feline coronavirus
[2] = system: Feline herpes virus; experiment: Antiviral activity; assay type: cell-based; conditions: for MIC50: read-out: MIC50 Feline herpes virus
[3] = system: Human Erythroleukemia Cells (HEL); experiment: Cytotoxicity; assay type: cell-based; conditions: morphological changes detected microscopically
[4] = system: Simplex herpes 1 KOS virus; experiment: Antiviral activity; assay type: cell-based, Simplex herpes 1 virus; conditions: read-out: MIC50 Simplex herpes 1 KOS virus
[5] = system: Simplex herpes 2 G virus; experiment: Antiviral activity; assay type: cell-based, Simplex herpes 2 virus; conditions: read-out: MIC50 Simplex herpes 2 G virus
[6] = system: Vesicular stomatitis virus; experiment: microbe, parasite or virus in culture; assay type: cell-based; conditions: read-out: MIC50 Vesicular stomatitis virus
[7] = system: Simplex herpes 1 TK-KOS ACVr virus; experiment: Antiviral activity; assay type: cell-based, Simplex herpes 1 virus; conditions: read-out: MIC50 Simplex herpes 1 TK-KOS ACVr virus
[8] = system: Cervical Cancer Cells (HeLa); experiment: Cytotoxicity in HeLa cells; assay type: cell-based
[9] = system: Vesicular stomatitis virus; experiment: microbe, parasite or virus in culture; assay type: cell-based; conditions: read-out: MIC50 Vesicular stomatitis virus; remark: listed apart in the source
[10] = system: Respiratory syncytial virus; experiment: Antiviral activity; assay type: cell-based; conditions: human respiratory syncytial virus, read-out: MIC50 Respiratory syncytial virus
[11] = system: Parainfluenza 3 virus; experiment: Antiviral activity; assay type: cell-based; conditions: read-out: MIC50 Parainfluenza 3 virus
[12] = system: Reovirus 1; experiment: Antiviral activity; assay type: cell-based; conditions: Mammalian orthoreovirus 1, read-out: MIC50 Reovirus 1
[13] = system: Sindbis virus; experiment: Antiviral activity; assay type: cell-based; conditions: read-out: MIC50 Sindbis virus
[14] = Cytotoxicity in MDCK cells; assay type: cell-based, Cocker Spaniel; conditions: dog
[15] = system: Influenza A H1N1 virus; experiment: Antiviral activity; assay type: cell-based; conditions: for MIC50: Influenza A virus
[16] = system: Influenza A H3N2 virus; experiment: Antiviral activity; assay type: cell-based; conditions: for MIC50: Influenza A virus
[17] = system: Influenza B virus; experiment: Antiviral activity; assay type: cell-based; conditions: for MIC50: Influenza B virus
[18] = system: Cocker Spaniel Hepatocytes (MDCK); experiment: Cytotoxicity in MDCK cells; assay type: cell-based
[19] = system: African Green Monkey Epithelial Kidney Cells (VERO); experiment: Cytotoxicity in VERO cells; assay type: cell-based
[20] = system: Feline Kidney Cells (CRFK); experiment: Cytotoxicity in CRFK cells; assay type: cell-based
[21] = system: Respiratory syncytial virus; conditions: literature data; cited from earlier work
[22] = system: Parainfluenza 3 virus; conditions: literature data; cited from earlier work
[23] = system: Influenza A H1N1 virus; conditions: previously reported; cited from earlier work
[24] = system: Influenza A H3N2 virus; conditions: literature; cited from earlier work
[25] = system: Influenza B virus; conditions: literature; cited from earlier work
[26] = H1N1, read-out: MIC50 Influenza A H1N1 virus CA
[27] = H1N1, read-out: MIC50 Influenza A H1N1 virus VA
[28] = H3N2, read-out: MIC50 Influenza A H3N2 virus CA
[29] = H3N2, read-out: MIC50 Influenza A H3N2 virus VA
[30] = read-out: MIC50 Influenza B virus CA
[31] = read-out: MIC50 Influenza B virus VA
[32] = MDCK cells, colorimetric assessment
[33] = MDCK cells, visual assessment (microscopy)

Row | Molecule | MCC (minimum cytotoxic concentration) [3] | MIC50 [4] | MIC50 [5] | MIC50 [6] | MIC50 [7] | MCC [8] | MIC50 [9] | MIC50 [10] | MIC50 [11] | MIC50 [12] | MIC50 [13] | CC50 [14] | MIC50 [15, 26] | MIC50 [15, 27] | MIC50 [16, 28] | MIC50 [16, 29] | MIC50 [17, 30] | MIC50 [17, 31] | MCC [18] | further results
1 | 3'-(1-Carboxy-1-phosphonoxyethoxy)uridinediphosphate-N-acetylglucosamine [UDA] | – | – | – | – | – | – | – | – | – | – | – | – | – | – | – | – | – | – | – | MIC50 Feline coronavirus [1]: 1.1 µM; MIC50 Feline herpes virus ([2]; CRFK cells): 0.8 µM
2 | CCOC(=O)c1c([C@@H]2C[C@H]2c2ccccc2)n(C)c2ccc(O)cc12 (relative stereo) [Compound 3, ethyl 5-hydroxy-1-methyl-2-(trans-2-phenylcyclopropyl)-1H-indole-3-carboxylate] | > 300 μM and > 100 μg/ml | > 300 µM and > 100 µg/mL | > 300 µM and > 100 µg/mL | > 300 µM and > 100 µg/mL | > 300 µM and > 100 µg/mL | > 300 μM and > 100 μg/ml | > 300 µM and > 100 µg/mL | > 300 µM and > 100 µg/mL | > 300 µM and > 100 µg/mL | > 300 µM and > 100 µg/mL | > 300 µM and > 100 µg/mL | 59.6 µM and 20 µg/mL | > 12 µM and > 4 µg/mL | > 12 µM and > 4 µg/mL | > 12 µM and > 4 µg/mL | > 12 µM and > 4 µg/mL | > 12 µM and > 4 µg/mL | > 12 µM and > 4 µg/mL | – | MIC50 [1]: > 300 µM and > 100 µg/mL; MIC50 [2]: > 300 µM and > 100 µg/mL
3 | N[C@H]1C(C(=O)O)=CC=C[C@@H]1O (relative stereo) [HHA, (2S,3S)-trans-3-Hydroxy-2,3-dihydroanthranilic acid] | – | – | – | – | – | – | – | – | – | – | – | – | – | – | – | – | – | – | – | MIC50 Feline coronavirus [1]: 13.0 µM (≈ 2.02 µg/mL)
4 | Nc1ncnc2c1ncn2C[C@H](O)CO [(S)-DHPA, 9-((2S)-2,3-Dihydroxypropyl)adenine] | – | – | – | – | – | >250 µM | > 250 µM | > 250 µM | > 250 µM | > 250 µM | > 250 µM | – | – | – | – | – | – | – | – | –
5 | Nc1nc2c(ncn2COCCO)c(=O)[nH]1 [Acyclovir] | >250 µM | 0.2 µM (≈ 0.045 µg/mL) | 0.08 µM (≈ 0.018 µg/mL) | 250 µM (≈ 56.3 µg/mL) | 2 µM (≈ 0.45 µg/mL) | – | – | – | – | – | – | – | – | – | – | – | – | – | – | –
6 | NC12CC3CC(CC(C3)C1)C2 [Amantadine] | – | – | – | – | – | – | – | – | – | – | – | > 200 µM | 83.9 µM (≈ 12.7 µg/mL) | 89 µM (≈ 13.5 µg/mL) | 1.6 µM (≈ 0.242 µg/mL) | 4 µM (≈ 0.605 µg/mL) | > 200 µM | > 200 µM | >200 µM | –
7 | O=c1[nH]c(=O)n([C@H]2C[C@H](O)[C@@H](CO)O2)cc1/C=C/Br [Brivudine] | >250 µM | 0.04 µM (≈ 0.0133 µg/mL) | 183 µM (≈ 61 µg/mL) | > 250 µM | 2 µM (≈ 0.666 µg/mL) | – | – | – | – | – | – | – | – | – | – | – | – | – | – | –
8 | Nc1ccn(C[C@@H](CO)OCP(=O)(O)O)c(=O)n1 [Cidofovir] | >250 µM | 6 µM (≈ 1.68 µg/mL) | 2 µM (≈ 0.558 µg/mL) | > 250 µM | 6 µM (≈ 1.68 µg/mL) | – | – | – | – | – | – | – | – | – | – | – | – | – | – | –
9 | Nc1nc(O)c2ncn(COC(CO)CO)c2n1 [Ganciclovir] | >100 µM | 0.08 µM (≈ 0.0204 µg/mL) | 0.03 µM (≈ 0.00766 µg/mL) | > 100 µM | 0.2 µM (≈ 0.051 µg/mL) | – | – | – | – | – | – | – | – | – | – | – | – | – | – | MIC50 [1]: > 100 µM
10 | CC(N)C12CC3CC(CC(C3)C1)C2 (centres unmarked) [Remantadine] | – | – | – | – | – | – | – | – | – | – | – | – | – | – | – | – | – | – | >200 µM | MIC50 Influenza A H1N1 virus CA [15, 32]: 10.3 µM (≈ 1.85 µg/mL); MIC50 Influenza A H1N1 virus VA [15, 33]: 20 µM (≈ 3.59 µg/mL); MIC50 Influenza A H3N2 virus CA [16, 32]: 0.3 µM (≈ 0.0538 µg/mL); MIC50 Influenza A H3N2 virus VA [16, 33]: 0.3 µM (≈ 0.0538 µg/mL); MIC50 Influenza B virus CA [17, 32]: >200 µM; MIC50 Influenza B virus VA [17, 33]: >200 µM
11 | NC(=O)c1ncn([C@@H]2O[C@H](CO)[C@@H](O)[C@H]2O)n1 [Ribavirin] | – | – | – | – | – | >250 µM | 10 µM (≈ 2.44 µg/mL) | 10 µM (≈ 2.44 µg/mL) | 50 µM (≈ 12.2 µg/mL) | > 250 µM | > 250 µM | > 100 µM | 6.4 µM (≈ 1.56 µg/mL) | 9 µM (≈ 2.2 µg/mL) | 10.7 µM (≈ 2.61 µg/mL) | 9 µM (≈ 2.2 µg/mL) | 5.9 µM (≈ 1.44 µg/mL) | 20 µM (≈ 4.88 µg/mL) | >100 µM | –
12 | CCOC(=O)c1c(CSc2ccccc2)n(C)c2cc(Br)c(O)c(CN(C)C)c12.Cl.O [Umifenovir, Ethyl 6-bromo-4-(dimethylamino)methyl-5-hydroxy-1-methyl-2-(phenylsulfanyl)methyl-1 H -indole-3-carboxylate hydrochloride monohydrate] | 188 μM and 100 μg/ml | > 37 µM and > 20 µg/mL | > 37 µM and > 20 µg/mL | > 37 µM and > 20 µg/mL | > 37 µM and > 20 µg/mL | 37 μM and 20 μg/ml | > 7.5 µM and > 4 µg/mL | > 7.5 µM and > 4 µg/mL | > 190 µM and > 100 µg/mL | > 190 µM and > 100 µg/mL | > 190 µM and > 100 µg/mL | 37 µM and 20 µg/mL | > 7.5 µM and > 4 µg/mL | > 7.5 µM and > 4 µg/mL | > 7.5 µM and > 4 µg/mL | > 7.5 µM and > 4 µg/mL | > 7.5 µM and > 4 µg/mL | > 7.5 µM and > 4 µg/mL | 19.6 μM and 10.4 μg/ml | MCs [19]: > 190 μM and > 100 μg/ml; MCC [20]: 19.0 μM and 10.1 μg/ml; MCC ([20]; listed as umifenovir): 10.1 µg/mL; MIC50 [1]: > 7.5 µM and > 4 µg/mL; MIC50 [2]: > 7.5 µM and > 4 µg/mL; MCC ([18]; listed as umifenovir): 10.4 µg/mL; MIC50 respiratory syncytial virus [21]: 8.7 µg/mL; MIC50 parainfluenza 3 virus [22]: 4.9 µg/mL; MIC50 influenza A H1N1 virus replication [23]: 2.7 to 4.0 µg/mL; MIC50 H3N2 influenza A virus replication [24]: 6.7 µg/mL; MIC50 influenza B virus replication [25]: 7.1 µg/mL
13 | CC(=O)N[C@H]1[C@H]([C@H](O)[C@H](O)CO)OC(C(=O)O)=C[C@@H]1N=C(N)N [Zanamivir] | – | – | – | – | – | – | – | – | – | – | – | > 100 µM | 1.2 µM (≈ 0.399 µg/mL) | 0.8 µM (≈ 0.266 µg/mL) | 2 µM (≈ 0.665 µg/mL) | 4 µM (≈ 1.33 µg/mL) | 0.3 µM (≈ 0.0997 µg/mL) | – | >100 µM | –
